In patent US7998995B2 (Exelixis Patent Company LLC, priority 2006, dated 2011) one finds EC50 data, which are given here for 12 molecules.

Molecules are shown by their SMILES.

One test relates to T1, LXR.
T1 construct: fused on or other part: GST fused to the LBD in the FRET assay
As to the kind of experiment: Measured EC50 or IC50 for LXR (LXRα and/or LXRβ; assay and subtype not given). The note with it: IC50 or EC50 class, subtype not specified. On the procedure: (§1) Measured EC50 or IC50 for LXR, and FXR for Compounds of the Invention
(§2) LXR and FXR activities for various compounds of the invention are presented in the following table; those compounds with EC50 or IC50 values <10 μM for at least one of LXRα, LXRβ or FXR are considered to be active. In the following Table, IC50 or EC50 data is represented as follows: A<1 μM, B=1-10 μm, and C>10 μM.

The next test concerns the target T2, FXR (Homo sapiens, UniProt Q96RI1).
T2 sequence (Q96RI1 1-472 isoform Q96RI1-2): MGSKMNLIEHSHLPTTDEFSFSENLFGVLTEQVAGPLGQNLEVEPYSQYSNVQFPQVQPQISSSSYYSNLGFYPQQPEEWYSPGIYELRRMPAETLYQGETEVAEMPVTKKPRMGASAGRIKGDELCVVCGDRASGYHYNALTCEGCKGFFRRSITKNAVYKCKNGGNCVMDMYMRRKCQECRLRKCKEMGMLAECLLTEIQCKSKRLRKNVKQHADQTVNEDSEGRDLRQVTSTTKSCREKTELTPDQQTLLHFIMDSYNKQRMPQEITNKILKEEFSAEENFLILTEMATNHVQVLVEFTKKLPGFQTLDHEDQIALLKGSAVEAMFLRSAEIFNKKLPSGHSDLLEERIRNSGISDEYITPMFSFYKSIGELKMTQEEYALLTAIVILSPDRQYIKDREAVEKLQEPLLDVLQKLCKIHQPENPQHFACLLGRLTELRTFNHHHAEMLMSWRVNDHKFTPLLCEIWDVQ
As to the kind of experiment: Measured EC50 or IC50 for FXR (assay not given). The following applies: IC50 or EC50 class; assay not specified. On the procedure:
as §1, §2

As a reminder, the EC50 is the midpoint of the concentration-response curve.

Turning to `Cc1cc(-c2cc(C(C)(C)O)nn2-c2c(Cl)cccc2Cl)ccc1-c1cccc(S(C)(=O)=O)c1` [Example 961, 2-{1-(2,6-dichlorophenyl)-5-[2-methyl-3′-(methylsulfonyl)biphenyl-4-yl]-1H-pyrazol-3-yl}propan-2-ol], the values for the EC50 in the test with LXR and on FXR were 1000 to 10000 nM and < 1000 nM, respectively.
The corresponding values for `CC(C)(O)c1cc(-c2c(F)cccc2Cl)n(-c2ccc(-c3cccc(S(C)(=O)=O)c3)cc2)n1` [Example 962, 2-{5-(2-chloro-6-fluorophenyl)-1-[3′-(methylsulfonyl)biphenyl-4-yl]-1H-pyrazol-3-yl}propan-2-ol] are < 1000 nM and 1000 to 10000 nM.
In the case of `CC(C)(O)c1cc(-c2c(Cl)cccc2Cl)n(-c2ccc(-c3cccc(S(C)(=O)=O)c3)cc2)n1` [Example 963, 2-{5-(2,6-dichlorophenyl)-1-[3′-(methylsulfonyl)biphenyl-4-yl]-1H-pyrazol-3-yl}propan-2-ol], the EC50 in the test with LXR is < 1000 nM; on FXR it was 1000 to 10000 nM.
Consider `CC(C)(O)c1nn(-c2ccc(-c3cccc(S(C)(=O)=O)c3)cc2F)c(-c2c(F)cccc2Cl)c1Cl` [Example 964, 2-{4-chloro-5-(2-chloro-6-fluorophenyl)-1-[3-fluoro-3′-(methysulfonyl)biphenyl-4-yl]-1H-pyrazol-3-yl}propan-2-ol], for which the values for the EC50 in the test with LXR and on FXR were < 1000 nM and 1000 to 10000 nM, respectively.
The corresponding values for `CC(C)(O)c1cc(-c2c(Cl)cccc2Cl)n(-c2ccc(-c3cccc(S(C)(=O)=O)c3)cc2Cl)n1` [Example 965, 2-{1-[3-chloro-3′-(methylsulfonyl)biphenyl-4-yl]-5-(2,6-dichlorophenyl)-1H-pyrazol-3-yl}propan-2-ol] are < 1000 nM and 1000 to 10000 nM.
The corresponding values for `Cc1cc(-c2cccc(S(C)(=O)=O)c2)ccc1-n1nc(C(C)(C)O)cc1-c1c(Cl)cccc1Cl` [Example 966, 2-{5-(2,6-dichlorophenyl)-1-[3-methyl-3′-(methylsulfonyl)biphenyl-4-yl]-1H-pyrazol-3-yl}propan-2-ol] are < 1000 nM and 1000 to 10000 nM.
The corresponding values for `Cc1cc(-c2cccc(S(C)(=O)=O)c2)ccc1-n1nc(C(C)(C)O)c(Cl)c1-c1c(Cl)cccc1Cl` [Example 967, 2-{4-chloro-5-(2,6-dichlorophenyl)-1-[3-methyl-3′-(methylsulfonyl)biphenyl-4-yl]-1H-pyrazol-3-yl}propan-2-ol] are < 1000 nM and 1000 to 10000 nM.
As to `Cc1cc(-c2cccc(S(C)(=O)=O)c2)ccc1-n1nc(C(C)(C)O)c(Cl)c1-c1c(F)cccc1Cl` [Example 968, 2-{4-chloro-5-(2-chloro-6-fluorophenyl)-1-[3-methyl-3′-(methylsulfonyl)biphenyl-4-yl]-1H-pyrazol-3-yl}propan-2-ol], the EC50 in the test on LXR was < 1000 nM; on FXR it was > 10000 nM.
As for `Cc1cc(-n2nc(C(C)(C)O)cc2-c2c(F)cccc2Cl)ccc1-c1cccc(S(C)(=O)=O)c1` [Example 969, 2-{5-(2-chloro-6-fluorophenyl)-1-[2-methyl-3′-(methylsulfonyl)biphenyl-4-yl]-1H-pyrazol-3-yl}propan-2-ol], the EC50 with LXR and on FXR was 1000 to 10000 nM each time.
In the case of `Cc1cc(-n2nc(C(C)(C)O)cc2-c2c(Cl)cccc2Cl)ccc1-c1cccc(S(C)(=O)=O)c1` [Example 970, 2-{5-(2,6-dichlorophenyl)-1-[2-methyl-3′-(methylsulfonyl)biphenyl-4-yl]-1H-pyrazol-3-yl}propan-2-ol], the EC50 in the test on LXR and on FXR was 1000 to 10000 nM throughout.
Regarding `Cc1cc(-n2nc(C(C)(C)O)c(Cl)c2-c2c(F)cccc2Cl)ccc1-c1cccc(S(C)(=O)=O)c1` [Example 971, 2-{4-chloro-4-(2-chloro-6-fluoropehnyl)-1-[2-methyl-3′-(methylsulfonyl)biphenyl-4-yl]-1H-pyrazol-3-yl}propan-2-ol], the EC50 is < 1000 nM in the test with LXR and 1000 to 10000 nM on FXR.
The corresponding values for `Cc1cc(-n2nc(C(C)(C)O)c(Cl)c2-c2c(Cl)cccc2Cl)ccc1-c1cccc(S(C)(=O)=O)c1` [Example 972, 2-{4-chloro-5-(2,6-dichlorophenyl)-1-[2-methyl-3′-(methylsulfonyl)biphenyl-4-yl]-1H-pyrazol-3-yl}propan-2-ol] are 1000 to 10000 nM and 1000 to 10000 nM.
